Columns and labels:
Experiment in all cases: relative viability (nuclei count vs DMSO), 5 days (fraction); higher = more cells survive
201T = tested on: 201T
Outline: (§1)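 Values are medians from duplicate plates. Each reflects relative viability, defined as the nuclei count of treated wells over that of vehicle wells. Lung cancer cell lines in 1536-well plates were pin-tool dosed one day after seeding with one drug alone or with a fixed anchor-drug dose plus five library-drug doses (not always all listed) in √10 steps, then fixed, stained and imaged at 4× after 5 days.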

A-427 = tested on: A-427
Outline: as §1

COR-L23 = tested on: COR-L23
Outline: as §1

H3255 = tested on: H3255
Outline: as §1

HCC-44 = tested on: HCC-44
Outline: as §1

LC-2-ad = tested on: LC-2-ad
Outline: as §1

LCLC-103H = tested on: LCLC-103H
Outline: as §1

LCLC-97TM1 = tested on: LCLC-97TM1
Outline: as §1

LK-2 = tested on: LK-2
Outline: as §1

LU99A = tested on: LU99A
Outline: as §1

NCI-H1563 = tested on: NCI-H1563
Outline: as §1

NCI-H1650 = tested on: NCI-H1650
Outline: as §1

NCI-H1793 = tested on: NCI-H1793
Outline: as §1

NCI-H2228 = tested on: NCI-H2228
Outline: as §1

NCI-H2347 = tested on: NCI-H2347
Outline: as §1

NCI-H23 = tested on: NCI-H23
Outline: as §1

NCI-H460 = tested on: NCI-H460
Outline: as §1

NCI-H596 = tested on: NCI-H596
Outline: as §1

NCI-H727 = tested on: NCI-H727
Outline: as §1

PC-14 = tested on: PC-14
Outline: as §1

PC-3 [JPC-3] = tested on: PC-3 [JPC-3]
Outline: as §1

SW 1573 = tested on: SW 1573
Outline: as §1

SW 900 = tested on: SW 900
Outline: as §1

SMILES: O=c1cc(-c2cccc3c2Sc2ccccc2S3)oc(N2CCOCC2)c1 + CCNC(=O)c1noc(-c2cc(C(C)C)c(O)cc2O)c1-c1ccc(CN2CCOCC2)cc1 [Luminespib] (partner 0.01 µM)
- relative viability (201T; first compound 0.08 µM): 1.02
- relative viability (201T; first compound 0.253 µM): 1.05
- relative viability (201T; first compound 0.8 µM): 1.16
- relative viability (201T; first compound 2.53 µM): 0.99
- relative viability (201T; first compound 8 µM): 0.969
- relative viability (A-427; first compound 0.08 µM): 0.92
- relative viability (A-427; first compound 0.253 µM): 1.18
- relative viability (A-427; first compound 0.8 µM): 1.01
- relative viability (A-427; first compound 2.53 µM): 0.842
- relative viability (A-427; first compound 8 µM): 1.09
- relative viability (COR-L23; first compound 0.08 µM): 0.863
- relative viability (COR-L23; first compound 0.253 µM): 0.854
- relative viability (COR-L23; first compound 0.8 µM): 0.837
- relative viability (COR-L23; first compound 2.53 µM): 0.78
- relative viability (COR-L23; first compound 8 µM): 0.703
- relative viability (H3255; first compound 0.08 µM): 0.758
- relative viability (H3255; first compound 0.253 µM): 0.943
- relative viability (H3255; first compound 0.8 µM): 0.84
- relative viability (H3255; first compound 2.53 µM): 0.884
- relative viability (H3255; first compound 8 µM): 0.955
- relative viability (HCC-44; first compound 0.08 µM): 1.17
- relative viability (HCC-44; first compound 0.253 µM): 0.971
- relative viability (HCC-44; first compound 2.53 µM): 0.993
- relative viability (HCC-44; first compound 8 µM): 1.04
- relative viability (LC-2-ad; first compound 0.08 µM): 0.979
- relative viability (LC-2-ad; first compound 0.253 µM): 1.12
- relative viability (LC-2-ad; first compound 0.8 µM): 1.13
- relative viability (LC-2-ad; first compound 2.53 µM): 0.955
- relative viability (LC-2-ad; first compound 8 µM): 0.965
- relative viability (LCLC-103H; first compound 0.08 µM): 0.878
- relative viability (LCLC-103H; first compound 0.253 µM): 1.17
- relative viability (LCLC-103H; first compound 0.8 µM): 1.05
- relative viability (LCLC-103H; first compound 2.53 µM): 0.959
- relative viability (LCLC-103H; first compound 8 µM): 0.792
- relative viability (LCLC-97TM1; first compound 0.08 µM): 0.815
- relative viability (LCLC-97TM1; first compound 0.253 µM): 0.733
- relative viability (LCLC-97TM1; first compound 0.8 µM): 0.807
- relative viability (LCLC-97TM1; first compound 2.53 µM): 0.71
- relative viability (LCLC-97TM1; first compound 8 µM): 0.708
- relative viability (LK-2; first compound 0.08 µM): 0.184
- relative viability (LK-2; first compound 0.253 µM): 0.184
- relative viability (LK-2; first compound 0.8 µM): 0.151
- relative viability (LK-2; first compound 2.53 µM): 0.22
- relative viability (LK-2; first compound 8 µM): 0.176
- relative viability (LU99A; first compound 0.08 µM): 0.211
- relative viability (LU99A; first compound 0.253 µM): 0.219
- relative viability (LU99A; first compound 0.8 µM): 0.259
- relative viability (LU99A; first compound 2.53 µM): 0.221
- relative viability (LU99A; first compound 8 µM): 0.306
- relative viability (NCI-H1563; first compound 0.08 µM): 0.708
- relative viability (NCI-H1563; first compound 0.253 µM): 0.567
- relative viability (NCI-H1563; first compound 0.8 µM): 0.491
- relative viability (NCI-H1563; first compound 2.53 µM): 0.491
- relative viability (NCI-H1563; first compound 8 µM): 0.497
- relative viability (NCI-H1650; first compound 0.08 µM): 0.189
- relative viability (NCI-H1650; first compound 0.253 µM): 0.199
- relative viability (NCI-H1650; first compound 0.8 µM): 0.199
- relative viability (NCI-H1650; first compound 2.53 µM): 0.186
- relative viability (NCI-H1650; first compound 8 µM): 0.209
- relative viability (NCI-H1793; first compound 0.08 µM): 0.168
- relative viability (NCI-H1793; first compound 0.253 µM): 0.299
- relative viability (NCI-H1793; first compound 0.8 µM): 0.231
- relative viability (NCI-H1793; first compound 2.53 µM): 0.17
- relative viability (NCI-H1793; first compound 8 µM): 0.153
- relative viability (NCI-H2228; first compound 0.08 µM): 0.139
- relative viability (NCI-H2228; first compound 0.253 µM): 0.106
- relative viability (NCI-H2228; first compound 0.8 µM): 0.129
- relative viability (NCI-H2228; first compound 2.53 µM): 0.146
- relative viability (NCI-H2228; first compound 8 µM): 0.143
- relative viability (NCI-H2347; first compound 0.08 µM): 0.529
- relative viability (NCI-H2347; first compound 0.253 µM): 0.358
- relative viability (NCI-H2347; first compound 0.8 µM): 0.284
- relative viability (NCI-H2347; first compound 2.53 µM): 0.461
- relative viability (NCI-H2347; first compound 8 µM): 0.391
- relative viability (NCI-H23; first compound 0.08 µM): 0.195
- relative viability (NCI-H23; first compound 0.253 µM): 0.228
- relative viability (NCI-H23; first compound 0.8 µM): 0.188
- relative viability (NCI-H23; first compound 2.53 µM): 0.219
- relative viability (NCI-H23; first compound 8 µM): 0.209
- relative viability (NCI-H460; first compound 0.08 µM): 0.0288
- relative viability (NCI-H460; first compound 0.253 µM): 0.0357
- relative viability (NCI-H460; first compound 0.8 µM): 0.0367
- relative viability (NCI-H460; first compound 2.53 µM): 0.0306
- relative viability (NCI-H460; first compound 8 µM): 0.0332
- relative viability (NCI-H596; first compound 0.08 µM): 1.06
- relative viability (NCI-H596; first compound 0.253 µM): 0.957
- relative viability (NCI-H596; first compound 0.8 µM): 0.763
- relative viability (NCI-H596; first compound 2.53 µM): 0.891
- relative viability (NCI-H596; first compound 8 µM): 0.852
- relative viability (NCI-H727; first compound 0.08 µM): 0.289
- relative viability (NCI-H727; first compound 0.253 µM): 0.449
- relative viability (NCI-H727; first compound 0.8 µM): 0.307
- relative viability (NCI-H727; first compound 2.53 µM): 0.536
- relative viability (NCI-H727; first compound 8 µM): 0.382
- relative viability (PC-14; first compound 0.08 µM): 0.155
- relative viability (PC-14; first compound 0.253 µM): 0.15
- relative viability (PC-14; first compound 0.8 µM): 0.165
- relative viability (PC-14; first compound 2.53 µM): 0.168
- relative viability (PC-14; first compound 8 µM): 0.155
- relative viability (PC-3 [JPC-3]; first compound 0.08 µM): 0.685
- relative viability (PC-3 [JPC-3]; first compound 0.253 µM): 0.765
- relative viability (PC-3 [JPC-3]; first compound 0.8 µM): 0.862
- relative viability (PC-3 [JPC-3]; first compound 2.53 µM): 0.687
- relative viability (PC-3 [JPC-3]; first compound 8 µM): 0.493
- relative viability (SW 1573; first compound 0.08 µM): 0.213
- relative viability (SW 1573; first compound 0.253 µM): 0.18
- relative viability (SW 1573; first compound 0.8 µM): 0.495
- relative viability (SW 1573; first compound 2.53 µM): 0.194
- relative viability (SW 1573; first compound 8 µM): 0.237
- relative viability (SW 900; first compound 0.08 µM): 0.198
- relative viability (SW 900; first compound 0.253 µM): 0.187
- relative viability (SW 900; first compound 0.8 µM): 0.166
- relative viability (SW 900; first compound 2.53 µM): 0.149
- relative viability (SW 900; first compound 8 µM): 0.15
